{"source": "paper PMC4418806", "about": "(Biochemistry, 2009)", "key": {"[1]": {"target": "T1, Escherichia coli biotin synthase (BioB), His6-BioB (Escherichia coli, UniProt P12996)", "T1 sequence (P12996 1-346)": "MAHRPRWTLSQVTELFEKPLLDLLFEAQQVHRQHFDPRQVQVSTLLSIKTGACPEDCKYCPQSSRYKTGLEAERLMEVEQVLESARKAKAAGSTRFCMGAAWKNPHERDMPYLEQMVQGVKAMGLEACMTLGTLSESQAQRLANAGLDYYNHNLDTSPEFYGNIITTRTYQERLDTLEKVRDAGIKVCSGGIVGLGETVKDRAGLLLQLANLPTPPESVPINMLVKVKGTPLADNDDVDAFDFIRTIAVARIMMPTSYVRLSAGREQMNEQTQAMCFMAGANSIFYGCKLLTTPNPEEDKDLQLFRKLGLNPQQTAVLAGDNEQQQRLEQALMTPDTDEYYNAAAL", "assay": "[…] kDa centrifugal filtration of assay mixture, HPLC", "assay_type": "binding", "conditions": "50 μM enzyme, intermediate formed in situ, after 2 h assay, anaerobic"}, "[2]": {"target": "T2, Escherichia coli biotin synthase (BioB), His6-BioB (Escherichia coli, UniProt P12996, N153Q)", "T2 sequence (P12996 1-346 N153Q)": "T1 sequence (P12996 1-346) with N153Q", "assay": "[…] kDa centrifugal filtration binding assay, HPLC"}, "[3]": {"target": "T3, Escherichia coli biotin synthase (BioB), His6-BioB (Escherichia coli, UniProt P12996, N153S)", "T3 sequence (P12996 1-346 N153S)": "T1 sequence (P12996 1-346) with N153S", "assay": "[…] kDa centrifugal filtration binding assay, HPLC"}, "[4]": {"target": "T1, Escherichia coli biotin synthase (BioB), His6-BioB", "assay": "[…] kDa centrifugal filtration binding assay, HPLC"}}, "note": "Where a chain is given by its changes, count along the chain named."}
{"smiles": "O=C(O)CCCCC[C@H]1NC(=O)N[C@H]1CS", "note": "[9-MDTB]", "values": [{"measurement": "% bound to protein", "setting": "[1]", "value": "~ 50%"}]}
{"smiles": "C[S+](CC[C@H](N)C(=O)O)C[C@H]1O[C@@H](n2cnc3c(N)ncnc32)[C@H](O)[C@@H]1O", "note": "(stereo partly shown) [AdoMet]", "values": [{"measurement": "Kd", "setting": "[2]", "value": "530 ± 180", "unit": "µM"}, {"measurement": "Kd", "setting": "[3]", "value": "3 ± 1", "unit": "µM"}, {"measurement": "Kd", "setting": "[4]", "value": "1 ± 0.5", "unit": "µM"}]}
{"smiles": "C[C@@H]1NC(=O)N[C@@H]1CCCCCC(=O)O", "note": "[DTB]", "values": [{"measurement": "Kd", "setting": "[2]", "value": "110 ± 30", "unit": "µM"}, {"measurement": "Kd", "setting": "[3]", "value": "11 ± 3", "unit": "µM"}, {"measurement": "Kd", "setting": "[4]", "value": "0.5 ± 1", "unit": "µM"}]}
